For orientation: IC50 means the concentration at which inhibition is half-maximal. Lower therefore signals greater potency in that assay. By AUC(0-t) is commonly meant exposure summed from dosing to a finite time, without extrapolation to infinity. Usually inhibition stands for the relative decrease from the control value, in per cent.

This is an account of results in ChEMBL document CHEMBL1138214 (J Med Chem, 2006).

Calls of active or inactive are those of the source. The calls are words filed in the database; no cut-off is given here.

In data set [1] the target is T1, C-X-C chemokine receptor type 2 (Homo sapiens, UniProt P25025).
T1 sequence (P25025 whole entry): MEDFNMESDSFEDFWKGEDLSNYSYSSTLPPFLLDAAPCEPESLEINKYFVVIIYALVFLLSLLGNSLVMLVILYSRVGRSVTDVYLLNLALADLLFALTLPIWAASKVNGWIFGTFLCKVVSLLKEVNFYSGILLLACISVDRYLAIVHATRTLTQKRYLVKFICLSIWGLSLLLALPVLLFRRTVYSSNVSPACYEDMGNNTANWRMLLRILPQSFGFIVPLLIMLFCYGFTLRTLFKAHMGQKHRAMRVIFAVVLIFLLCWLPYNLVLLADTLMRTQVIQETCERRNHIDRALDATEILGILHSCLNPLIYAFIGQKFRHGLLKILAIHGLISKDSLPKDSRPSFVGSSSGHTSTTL
Put plainly: Displacement of [125I]hCXCL8 from human CXCR2 receptor expressed in BaF3 cells. It counts as cell-based. (In general: Displacement assays read how much labelled ligand stays bound in the presence of the test substance.)

Data set [2] deals with T2, C-X-C chemokine receptor type 1 (Homo sapiens, UniProt P25024).
T2 sequence (P25024 whole entry): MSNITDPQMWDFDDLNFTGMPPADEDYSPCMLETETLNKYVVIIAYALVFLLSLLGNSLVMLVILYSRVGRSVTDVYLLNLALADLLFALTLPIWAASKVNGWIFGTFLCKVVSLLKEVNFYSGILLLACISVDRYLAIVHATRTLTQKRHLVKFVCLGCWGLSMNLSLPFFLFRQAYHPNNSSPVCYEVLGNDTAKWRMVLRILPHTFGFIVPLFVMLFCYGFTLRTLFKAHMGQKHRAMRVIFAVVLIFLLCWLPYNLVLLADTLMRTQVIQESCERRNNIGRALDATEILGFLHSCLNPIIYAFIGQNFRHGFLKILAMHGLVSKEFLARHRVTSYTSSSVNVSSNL
Put plainly: Displacement of [125I]hCXCL8 from human CXCR1 receptor expressed in BaF3 cells. The class given is cell-based.

The nature of data set [3]: AUC (0-6h) in rat at 10 mg/kg, po. Further details: time < 6 hr, dose 10 mg/kg, route oral. It counts as ADME, organism-based. Particulars: plasma.
Data set [4] concerns the target Interleukin-8 receptors, CXCR1/CXCR2 (Homo sapiens) (UniProt P25025+P25024). Put plainly: Selectivity for CXCR2 over CXCR1. The class given is protein assay.
Data set [5] has as its target T3, Interleukin-8 receptors, CXCR1/CXCR2 (Homo sapiens, UniProt P25025+P25024).
T3 sequence (P25025 whole entry): T1 sequence (P25025 whole entry)
T3 sequence (P25024 whole entry): T2 sequence (P25024 whole entry)
Put plainly: Inhibition of CXCL8-induced human neutrophil chemotaxis. It counts as functional.

The target of data set [6] is T4, C-X-C chemokine receptor type 1 (Homo sapiens) (UniProt P25024).
T4 sequence (whole entry): T2 sequence (P25024 whole entry)
Put plainly: Displacement of [125I]hCXCL8 from human CXCR1 receptor expressed in BaF3 cells at >10000 nM. The class given is cell-based.

In data set [7] the target is T5, C5a anaphylatoxin chemotactic receptor 1 (Homo sapiens) (UniProt P21730).
T5 sequence (whole entry): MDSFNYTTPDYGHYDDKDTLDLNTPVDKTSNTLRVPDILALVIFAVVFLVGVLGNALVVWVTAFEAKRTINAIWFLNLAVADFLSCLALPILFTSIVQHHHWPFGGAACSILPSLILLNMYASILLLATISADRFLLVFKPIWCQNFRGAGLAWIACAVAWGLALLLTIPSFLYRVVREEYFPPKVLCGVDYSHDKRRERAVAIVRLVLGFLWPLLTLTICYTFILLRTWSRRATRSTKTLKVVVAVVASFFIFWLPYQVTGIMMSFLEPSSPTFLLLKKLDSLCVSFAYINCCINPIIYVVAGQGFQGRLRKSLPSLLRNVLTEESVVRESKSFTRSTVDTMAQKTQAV
Put plainly: Inhibition of C5a-induced human neutrophil chemotaxis. The class given is functional.

Data set [8] has as its target T6, fMet-Leu-Phe receptor (Homo sapiens) (UniProt P21462).
T6 sequence (whole entry): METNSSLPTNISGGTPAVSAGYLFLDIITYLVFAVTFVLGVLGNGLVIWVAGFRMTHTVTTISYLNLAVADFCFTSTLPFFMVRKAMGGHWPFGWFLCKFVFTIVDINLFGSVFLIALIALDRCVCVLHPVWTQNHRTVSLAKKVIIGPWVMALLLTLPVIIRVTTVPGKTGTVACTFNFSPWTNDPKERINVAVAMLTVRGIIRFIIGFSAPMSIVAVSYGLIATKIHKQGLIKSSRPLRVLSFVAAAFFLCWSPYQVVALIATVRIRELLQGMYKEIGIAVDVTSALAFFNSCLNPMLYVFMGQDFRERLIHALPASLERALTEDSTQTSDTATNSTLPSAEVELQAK
Put plainly: Inhibition of fMLP-induced human neutrophil chemotaxis. The class given is functional.

In data set [9] the target is T7, C-X-C chemokine receptor type 3 (Homo sapiens) (UniProt P49682).
T7 sequence (whole entry): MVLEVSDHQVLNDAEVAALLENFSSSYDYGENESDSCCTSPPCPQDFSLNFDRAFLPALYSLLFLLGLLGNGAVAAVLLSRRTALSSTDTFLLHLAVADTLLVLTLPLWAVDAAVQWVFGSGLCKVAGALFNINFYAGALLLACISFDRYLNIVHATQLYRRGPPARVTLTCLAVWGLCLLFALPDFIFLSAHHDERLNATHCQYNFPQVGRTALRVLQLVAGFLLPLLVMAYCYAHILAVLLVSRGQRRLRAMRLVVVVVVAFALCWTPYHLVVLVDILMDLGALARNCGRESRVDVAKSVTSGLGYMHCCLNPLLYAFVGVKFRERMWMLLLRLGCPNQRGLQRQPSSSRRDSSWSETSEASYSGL
Description: Inhibition of CXCR3 receptor at 2 to 20 uM.

For data set [10], the target named is C-C chemokine receptor type 5 (Homo sapiens) (UniProt P51681). Put plainly: Inhibition of CCR5 receptor at 2 to 20 uM.
Sequence of C-C chemokine receptor type 5 (Homo sapiens) (P51681 whole entry, looked up): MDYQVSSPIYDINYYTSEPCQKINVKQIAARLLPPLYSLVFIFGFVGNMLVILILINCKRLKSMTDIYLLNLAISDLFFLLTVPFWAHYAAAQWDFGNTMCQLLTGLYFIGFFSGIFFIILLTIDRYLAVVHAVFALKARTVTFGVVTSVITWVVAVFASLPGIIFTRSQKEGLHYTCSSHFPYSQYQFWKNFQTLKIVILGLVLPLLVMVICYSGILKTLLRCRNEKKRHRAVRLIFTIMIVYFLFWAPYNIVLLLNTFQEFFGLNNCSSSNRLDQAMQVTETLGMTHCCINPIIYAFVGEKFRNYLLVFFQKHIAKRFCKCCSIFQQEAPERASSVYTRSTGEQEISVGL

For the molecule `Cc1ccc([C@@H](C)Nc2c(Nc3cccc(C(=O)N(C)C)c3O)c(=O)c2=O)o1`, the figures for the half-inhibitory concentration (IC50) in data set [1], in data set [2] and in [5] were 5.4 nM, 775 nM and 251 nM, respectively. Besides, in data set [3], the area under the curve AUC(0-t) at 6 h was found to be 34 µM·h. The Ratio IC50 in data set [4] is > 100.
Regarding `CC[C@H](Nc1c(Nc2cccc(C(=O)N(C)C)c2O)c(=O)c1=O)c1ccccc1`, the outcome in data set [6] was inactive. Besides, the half-maximal inhibitory concentration (IC50) in [1] was 234 nM. For the same molecule, the AUC(0-t) at 6 h in data set [3] was 1 µM·h.
For the molecule `CC[C@@H](Nc1c(Nc2cccc(C(=O)N(C)C)c2O)c(=O)c1=O)c1cccs1`, the IC50 turned out to be 6 nM in [1] and 81 nM in data set [2]. The molecule further registered an AUC(0-t) at 6 h in data set [3] of 2.5 µM·h.
Regarding `CC[C@@H](Nc1c(Nc2cccc(C(=O)N(C)C)c2O)c(=O)c1=O)c1ccccc1`, the concentration for half-maximal inhibition (IC50) in data set [1] came to 6.8 nM; in data set [2], 254 nM; in data set [5] it was 398 nM. Besides, in data set [3], the AUC(0-t) at 6 h turned out to be 17.4 µM·h.
As to `CC[C@@H](Nc1c(Nc2cccc(C(=O)N(C)C)c2O)c(=O)c1=O)c1ccc(C)s1`, the 50% inhibitory concentration (IC50) in data set [1] came out at 5.3 nM; in data set [2], 235 nM. This molecule came in with an area under the curve AUC(0-t) at 6 h in data set [3] of 14.1 µM·h.
Molecule `CCC(CC)Nc1c(Nc2cccc(C(=O)N(C)C)c2O)c(=O)c1=O` yielded an IC50 in data set [2] of 910 nM. The same molecule registered an AUC(0-t) at 6 h in [3] of 6.4 µM·h.
Consider `CC[C@@H](Nc1c(Nc2cccc(C(=O)N(C)C)c2O)c(=O)c1=O)c1ccco1`, for which the IC50 in data set [1] amounted to 3.8 nM; in data set [2], 26 nM. In data set [3], this molecule came in with an area under the curve AUC(0-t) at 6 h of 1.4 µM·h.
As for `C[C@@H](Nc1c(Nc2cccc(C(=O)N(C)C)c2O)c(=O)c1=O)c1ccccc1`, the IC50 in data set [2] was determined as 3060 nM.
As to `Cc1ccc([C@H](Nc2c(Nc3cccc(C(=O)N(C)C)c3O)c(=O)c2=O)C2CC2)o1`, the figures for the half-maximal inhibitory concentration (IC50) in [1] and in [2] were 3.6 nM and 55 nM, respectively. The molecule further came in with an AUC(0-t) at 6 h in data set [3] of 1.4 µM·h.
For `Cc1ccc([C@H](Nc2c(Nc3cccc(C(=O)N(C)C)c3O)c(=O)c2=O)C(C)C)o1`, in that order: 6.2 nM, 34 nM and 3.2 µM·h.
For `C[C@H](Nc1c(Nc2cccc(C(=O)N(C)C)c2O)c(=O)c1=O)c1ccccc1`, the outcome in [6] was inactive.
In the case of `CC[C@@H](Nc1c(Nc2cccc(C(=O)N(C)C)c2O)c(=O)c1=O)c1ccc2c(c1)OCO2`, the 50% inhibitory concentration (IC50) in data set [1] came out at 5 nM; in data set [2] it was 145 nM. In addition, the area under the curve AUC(0-t) at 6 h in [3] was found to be 31.7 µM·h.
In the case of `CN(C)C(=O)c1cccc(Nc2c(NCc3ccccc3)c(=O)c2=O)c1O`, the result in data set [6] was inactive. The same molecule yielded an IC50 in data set [1] of 236 nM.
In the case of `CC[C@@H](Nc1c(Nc2cccc(C(=O)N(C)C)c2O)c(=O)c1=O)c1cccc(F)c1`, the IC50 turned out to be 4.9 nM in data set [1] and 197 nM in data set [2]. In addition, the exposure AUC(0-t) at 6 h in [3] turned out to be 18.3 µM·h.
On to `Cc1ccc([C@H](Nc2c(Nc3cccc(C(=O)N(C)C)c3O)c(=O)c2=O)C(C)(C)C)o1`, for which the half-maximal inhibitory concentration (IC50) in [1] was found to be 3.8 nM; in data set [2], 11 nM. Further, the AUC(0-t) at 6 h in data set [3] is 2.6 µM·h.
With `CC[C@@H](Nc1c(Nc2cccc(C(=O)N(C)C)c2O)c(=O)c1=O)c1ccc(C)o1` [NAVARIXIN ANHYDROUS], the outcome in data set [7] and in data set [8] was inactive. For the same molecule, in [3], the AUC(0-t) at 6 h stood at 49 µM·h. The inhibition in [9] and in data set [10] was < 15% in each case.
